Results as given in ChEMBL document CHEMBL5244240, “MmpL3 inhibitors as antituberculosis drugs” (Eur J Med Chem, 2020).
In brackets after ≈: the same amount, converted by molar mass.

Columns and labels:
[1] = test system: Mycobacteroides abscessus; assay: Antitubercular activity against Mycobacterium abscessus CIP104536; assay type: functional
[2] = test system: Mycobacterium tuberculosis; assay: Antitubercular activity against Mycobacterium tuberculosis H37Rv; assay type: functional
[3] = test system: Mycobacterium tuberculosis; assay: Antitubercular activity against replicating Mycobacterium tuberculosis bacilli; assay type: functional
[4] = test system: Mycobacterium tuberculosis; assay: Antitubercular activity against non replicating Mycobacterium tuberculosis bacilli by low oxygen recovery assay; assay type: functional
[5] = test system: Mycobacterium tuberculosis; assay: Antitubercular activity against Mycobacterium tuberculosis H37Rv infected in mouse macrophage; assay type: functional
[6] = Clearance in mouse microsomes; assay type: ADME, Microsome
[7] = test system: Mycobacterium tuberculosis; assay: Antitubercular activity against Mycobacterium tuberculosis H37Rv infected in mouse assessed as log reduction in CFU in lung at 50 mg/kg; assay type: functional
[8] = test system: Mycobacterium tuberculosis; assay: Antitubercular activity against Mycobacterium tuberculosis H37Rv infected in mouse assessed as log reduction in CFU in lung at 100 mg/kg; assay type: functional
[9] = test system: Mycobacterium tuberculosis; assay: Antitubercular activity against Mycobacterium tuberculosis infected in mouse assessed as log reduction in bacterial burden in lung at 100 mg/kg; assay type: functional
[10] = test system: Mycobacterium tuberculosis; assay: Antitubercular activity against Mycobacterium tuberculosis infected in mouse assessed as log reduction in bacterial burden in lung at 300 mg/kg; assay type: functional
[11] = test system: Mycobacterium tuberculosis; assay: Antitubercular activity against non-replicating Mycobacterium tuberculosis H37Rv; assay type: functional
[12] = test system: Mycobacterium tuberculosis; assay: Antitubercular activity against replicating Mycobacterium tuberculosis H37Rv; assay type: functional
[13] = test system: Mycobacterium tuberculosis; assay: Bactericidal activity against replicating Mycobacterium tuberculosis H37Rv; assay type: functional
[14] = Tmax in mouse at 25 mg/kg, po; assay type: ADME, organism-based; conditions: in vivo
[15] = Elimination half life in mouse at 25 mg/kg, po; assay type: ADME, organism-based; conditions: in vivo, read-out: beta t1/2 (converted)
[16] = Volume of distribution at steady state in mouse at 25 mg/kg, po; assay type: ADME, organism-based; conditions: in vivo
[17] = Clearance in mouse at 25 mg/kg, po; assay type: ADME, organism-based; conditions: in vivo
[18] = test system: Mycobacteroides abscessus; assay: Antimycobacterial activity against Mycobacterium abscessus smooth variant; assay type: functional
[19] = test system: Mycobacteroides abscessus; assay: Antimycobacterial activity against Mycobacterium abscessus rough variant; assay type: functional
[20] = test system: Mycobacterium tuberculosis; assay: Antitubercular activity against Mycobacterium tuberculosis […]; assay type: functional

Cc1cc2nc(CCC3CCCCC3)[nH]c2cc1C
MIC [1]: 0.125 µg/mL (≈ 0.488 µM)
MIC [2]: 0.75 µg/mL

Cc1c(CN2CCN(C)CC2)cc(-c2ccc(Cl)cc2)n1-c1ccc(Cl)cc1
MIC [3]: 5 µM (≈ 2.07 µg/mL)
MIC [4]: 18.5 µM (≈ 7.67 µg/mL)

CCc1ccc([C@H]2C[C@@H](C(F)(F)F)n3ncc(C(=O)NCc4ccc(OC)cc4)c3N2)cc1
MIC [2]: 0.3 µM
MIC80 [5]: 0.16 µM (≈ 0.0734 µg/mL)

FC(F)(F)Oc1ccc(Oc2ccc(CN3CCC4(CC3)OCCc3sccc34)cc2)cc1
MIC [2]: 0.06 µM
CLH [6]: 1.2 mL/min/g
log(activity) [7]: 2.3
log(activity) [8]: 2.7

CCc1ccc([C@H]2C[C@@H](C(F)(F)F)n3ncc(C(=O)NCc4ccc5c(c4)OCO5)c3N2)cc1
MIC [2]: 0.16 µM
log(activity) [9]: 1.5
log(activity) [10]: 2.2

CC(C)=CCC/C(C)=C\CNCCNC1C2CC3CC(C2)CC1C3 (stereo not given)
MIC [11]: 0.7 µM (≈ 0.231 µg/mL)
MIC [12]: 0.7 µM (≈ 0.231 µg/mL)

FC(F)(F)Oc1ccc(Oc2ccc(CNCCNC3C4CC5CC(C4)CC3C5)cc2)cc1 (stereo not given)
MBC99 [13]: 5 µM (≈ 2.3 µg/mL)
MIC99 [12]: 2.5 µM (≈ 1.15 µg/mL)

CCCn1cnc2cc(NCc3ccc(Cl)cc3Cl)ccc21
IC90 [2]: 16 µM

Cc1c(CN2CCOCC2)cc(-c2ccc(C(C)C)cc2)n1-c1ccc(F)cc1
MIC [2]: 0.12 µM
CLH [6]: 1.4 mL/min/g

CC1(C)CCC(NC(=O)c2cc3c(F)cc(F)cc3[nH]2)CC1
Tmax [14]: 1.5 h
half-life [15]: 4.47 h
Vdss [16]: 2.24 L/kg
CL/F [17]: 18.7 mL/min/kg

CC1(C)CCC(NC(=O)c2cc3c(Cl)cc(Cl)cc3[nH]2)CC1
Tmax [14]: 1.5 h
half-life [15]: 5.25 h
Vdss [16]: 4.11 L/kg
CL/F [17]: 18.1 mL/min/kg

c1cc2c(s1)CCOC21CCN(Cc2ccc3c(c2)OCCO3)CC1
MIC [2]: 0.3 µM
CLH [6]: > 30 mL/min/g

COc1ccc(-c2cc(CN3CCSCC3)c(C)n2-c2ccc(F)cc2)cc1
MIC [2]: 0.2 µM
CLH [6]: 18.76 mL/min/g

Cc1ccccc1CN1CCC(O)(c2ccc(Cl)c(C(F)(F)F)c2)CC1
MIC [18]: 0.32 µM (≈ 0.123 µg/mL)
MIC [19]: 0.32 µM (≈ 0.123 µg/mL)

O=C(NCCc1ccc(Cl)cc1)C1(c2cccs2)CCCCC1
MIC99 [20]: 19.3 µM (≈ 6.71 µg/mL)
